Data from the supplement of paper PMC11451515.

System: NOMO1
Test: cell viability relative to DMSO control; higher = less cytotoxic
Conditions: 48 h
Outline: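 Three leukemia lines were tested: NOMO1 and SEM at 500 cells/well and P12-Ichikawa at 1000 cells/well. Each was adapted for at least four passages in each medium and seeded in 5 μl in 1536-well plates, and library compounds in DMSO were pin-dosed from 47 μM to 0.79 nM in 11 threefold steps. After 48 h at 37°C, CellTiter-Glo One luminescence was read. Viability is a percentage relative to DMSO wells on each plate, with cell-free wells as background.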

[1] = HPLM + 10% dialyzed FBS, 0.000781 µM
[2] = HPLM + 10% dialyzed FBS, 0.00234 µM
[3] = HPLM + 10% dialyzed FBS, 0.00702 µM
[4] = HPLM + 10% dialyzed FBS, 0.0211 µM
[5] = HPLM + 10% dialyzed FBS, 0.0632 µM
[6] = HPLM + 10% dialyzed FBS, 0.19 µM
[7] = HPLM + 10% dialyzed FBS, 0.569 µM
[8] = HPLM + 10% dialyzed FBS, 1.71 µM
[9] = HPLM + 10% dialyzed FBS, 5.12 µM
[10] = HPLM + 10% dialyzed FBS, 15.4 µM
[11] = HPLM + 10% dialyzed FBS, 46.1 µM
[12] = RPMI 5 mM glucose + 10% FBS, 0.000781 µM
[13] = RPMI 5 mM glucose + 10% FBS, 0.00234 µM
[14] = RPMI 5 mM glucose + 10% FBS, 0.00702 µM
[15] = RPMI 5 mM glucose + 10% FBS, 0.0211 µM
[16] = RPMI 5 mM glucose + 10% FBS, 0.0632 µM
[17] = RPMI 5 mM glucose + 10% FBS, 0.19 µM
[18] = RPMI 5 mM glucose + 10% FBS, 0.569 µM
[19] = RPMI 5 mM glucose + 10% FBS, 1.71 µM
[20] = RPMI 5 mM glucose + 10% FBS, 5.12 µM
[21] = RPMI 5 mM glucose + 10% FBS, 15.4 µM
[22] = RPMI 5 mM glucose + 10% FBS, 46.1 µM
[23] = RPMI 5 mM glucose + 10% dialyzed FBS, 0.000781 µM
[24] = RPMI 5 mM glucose + 10% dialyzed FBS, 0.00234 µM
[25] = RPMI 5 mM glucose + 10% dialyzed FBS, 0.00702 µM
[26] = RPMI 5 mM glucose + 10% dialyzed FBS, 0.0211 µM
[27] = RPMI 5 mM glucose + 10% dialyzed FBS, 0.0632 µM
[28] = RPMI 5 mM glucose + 10% dialyzed FBS, 0.19 µM
[29] = RPMI 5 mM glucose + 10% dialyzed FBS, 0.569 µM
[30] = RPMI 5 mM glucose + 10% dialyzed FBS, 1.71 µM
[31] = RPMI 5 mM glucose + 10% dialyzed FBS, 5.12 µM
[32] = RPMI 5 mM glucose + 10% dialyzed FBS, 15.4 µM
[33] = RPMI 5 mM glucose + 10% dialyzed FBS, 46.1 µM

Row | Structure (SMILES) | cell viability [1] | cell viability [2] | cell viability [3] | cell viability [4] | cell viability [5] | cell viability [6] | cell viability [7] | cell viability [8] | cell viability [9] | cell viability [10] | cell viability [11] | cell viability [12] | cell viability [13] | cell viability [14] | cell viability [15] | cell viability [16] | cell viability [17] | cell viability [18] | cell viability [19] | cell viability [20] | cell viability [21] | cell viability [22] | cell viability [23] | cell viability [24] | cell viability [25] | cell viability [26] | cell viability [27] | cell viability [28] | cell viability [29] | cell viability [30] | cell viability [31] | cell viability [32] | cell viability [33]
1 | C=CC(=O)Nc1cccc(Oc2nc(Nc3ccc(N4CCN(C)CC4)cc3OC)ncc2Cl)c1 | 64.3% | 69.5% | 78.3% | 79.1% | 81.9% | 80.6% | 73.9% | 76.5% | 54.7% | 45.1% | 33.3% | 72.9% | 74.3% | 79.3% | 78.8% | 87.1% | 102% | 82.1% | 52.1% | 67.3% | 62.1% | 55.8% | 69.6% | 77.9% | 79.4% | 85.8% | 80.6% | 79.2% | 77.3% | 87.9% | 66.1% | 72.2% | 45.5%
2 | COc1ccc(C(=O)CC(=O)c2ccc(C(C)(C)C)cc2)cc1 | 78.3% | 107% | 92.8% | 101% | 108% | 112% | 131% | 130% | 121% | 98.3% | 105% | 101% | 108% | 107% | 110% | 121% | 113% | 122% | 104% | 117% | 122% | 121% | 73% | 102% | 99.9% | 106% | 108% | 111% | 110% | 106% | 115% | 95.7% | 111%
3 | C=C[C@H]1CN2CCC1C[C@@H]2[C@@H](O)c1ccnc2ccccc12 (some centres undefined) | 97% | 109% | 105% | 93.7% | 99.7% | 107% | 92.7% | 97.1% | 86% | 93.1% | 74.9% | 90.3% | 90.6% | 94.1% | 85.4% | 91.4% | 91.1% | 84.9% | 86.1% | 89.9% | 83.8% | 85.2% | 101% | 114% | 96.7% | 99.3% | 92.6% | 96% | 85.2% | 99.1% | 84.1% | 85.4% | 76.8%
4 | CC1=CC=C2\N=C/3N(CC[C@@]3(O)C(=O)C2=C1)C4=CC=CC=C4 | 102% | 103% | 96.2% | 104% | 104% | 95.4% | 105% | 88.3% | 74% | 88.9% | 91.3% | 82% | 88.2% | 93.6% | 85.4% | 79.3% | 79.5% | 84% | 84.4% | 75.8% | 92.2% | 85.9% | 94.5% | 95.1% | 87.5% | 86.7% | 101% | 92% | 86.7% | 88.9% | 79.2% | 84.9% | 82.9%
5 | CC(Cc1ccc(O)c(O)c1)(NN)C(=O)O (centres undefined) | 104% | 109% | 102% | 103% | 117% | 113% | 107% | 99.3% | 115% | 121% | 92.3% | 114% | 118% | 113% | 126% | 115% | 103% | 105% | 109% | 112% | 110% | 106% | 114% | 106% | 129% | 128% | 123% | 106% | 103% | 99.8% | 116% | 106% | 94.7%
6 | OC1=CC2=C(C(=O)\C=C(/O2)C3=CC=CC=C3)C(=C1O)O | 93.6% | 102% | 117% | 107% | 111% | 106% | 108% | 92.2% | 72.6% | 82.8% | 83.1% | 118% | 105% | 105% | 115% | 96.8% | 111% | 103% | 111% | 84% | 52.4% | 57.4% | 113% | 108% | 110% | 107% | 102% | 112% | 106% | 98.6% | 96% | 55.2% | 64.9%
7 | Cc1cc(-c2nnc3n2CCCCC3)c(C)n1-c1ccccc1 | 116% | 122% | 136% | 131% | 121% | 125% | 148% | 132% | 117% | 120% | 108% | 112% | 112% | 109% | 122% | 115% | 120% | 118% | 114% | 117% | 116% | 110% | 115% | 120% | 110% | 114% | 124% | 113% | 116% | 121% | 111% | 122% | 120%
8 | CCc1cccc2c3c([nH]c12)C(CC)(CC(=O)O)OCC3 (centres undefined) | 98.5% | 98.5% | 122% | 105% | 100% | 113% | 88.4% | 97.8% | 97.4% | 100% | 84.5% | 95% | 92.7% | 95.9% | 102% | 85% | 90.4% | 98.1% | 93.2% | 93.6% | 84.7% | 87.2% | 100% | 94.3% | 95.1% | 87.3% | 82.4% | 77.7% | 89.3% | 87.5% | 92.9% | 82.9% | 97.1%
